Test results published in US20110195900A1, “PEPTIDIC PTH RECEPTOR AGONISTS” (FERRING B.V., priority 2008, published 2011).
Where two headings read alike, the source gives them in different places. Non-standard residues stand in square brackets, D forms with d. Residues, ends and D or L forms follow the SMILES beside them. 1Nal = N[C@@H](Cc1cccc2ccccc12)C(=O)O; 2Nal = N[C@@H](Cc1ccc2ccccc2c1)C(=O)O; β3hI = CC[C@H](C)[C@H](N)CC(=O)O; β3hE = N[C@@H](CCC(=O)O)CC(=O)O; hSer = N[C@@H](CCO)C(=O)O; Nle = CCCC[C@H](N)C(=O)O; βAla = NCCC(=O)O

Target: T1, human PTH-1 receptor (Homo sapiens, UniProt Q03431)
T1 construct: expressed in transfected cells; host or cells: HEK-293
T1 sequence (Q03431 27-593): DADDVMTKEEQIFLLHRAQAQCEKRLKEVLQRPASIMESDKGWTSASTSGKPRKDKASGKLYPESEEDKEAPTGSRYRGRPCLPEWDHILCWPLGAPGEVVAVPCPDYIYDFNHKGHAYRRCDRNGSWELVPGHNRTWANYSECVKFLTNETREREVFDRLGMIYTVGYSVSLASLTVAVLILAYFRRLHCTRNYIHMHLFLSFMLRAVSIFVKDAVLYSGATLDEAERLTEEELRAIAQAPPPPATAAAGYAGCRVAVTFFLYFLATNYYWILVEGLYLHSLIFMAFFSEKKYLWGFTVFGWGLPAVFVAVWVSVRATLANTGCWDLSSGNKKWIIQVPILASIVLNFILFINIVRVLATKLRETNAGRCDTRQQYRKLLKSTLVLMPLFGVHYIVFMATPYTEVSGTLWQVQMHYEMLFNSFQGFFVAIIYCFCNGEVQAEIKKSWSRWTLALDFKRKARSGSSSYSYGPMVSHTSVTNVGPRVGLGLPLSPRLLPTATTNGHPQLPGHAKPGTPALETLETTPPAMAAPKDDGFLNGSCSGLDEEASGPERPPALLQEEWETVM
Test: Reporter gene assay (CRE-luciferase) for agonist activity in transiently transfected HEK-293 cells
Type: cell-based
Conditions: for hPTHR-2/hPTHR-1: ratio of EC50 values, selectivity for hPTH-1 receptor over hPTH-2 receptor
Method: Agonist activity of compounds on the human PTH-1 receptor was determined in a reporter gene assay by transiently transfecting HEK-293 cells with plasmids encoding human PTH-1 receptor under control of the SV40 promoter and a luciferase reporter gene under control of cAMP responsive elements (CRE). See Himmler et al, J. Recept. Res. 13 (1993) 79-94, for further guidance on this assay. Transfected cells were exposed to serial dilutions of compounds for 4-5 hours followed by lysis of cells, determination of luciferase activity, and determination of compound efficacies and EC50 values through non-linear regression.
PTH (1-34) was used as an internal control in each experiment and compounds were tested in at least three independent experiments. To determine selectivity, compounds were tested in luciferase-based transcriptional reporter gene assays expressing the human PTH-2 receptor.

EC50 (Table 3, HEK-293 cells, CRE-luciferase, 4-5 hours exposure, read-out: hPTHR-1 EC50)	SMILES	hPTHR-2/hPTHR-1 (Table 3)	EC50
0.22 nM	CCCC[C@H](NC(=O)CCNC(=O)[C@H](CC(N)=O)NC(=O)[C@H](CC(C)C)NC(=O)[C@H](Cc1c[nH]cn1)NC(=O)[C@H](CCCCN)NC(=O)CNC(=O)[C@H](CC(C)C)NC(=O)[C@H](CC(N)=O)NC(=O)[C@H](Cc1c[nH]cn1)NC(=O)[C@H](CCCC)NC(=O)[C@H](CC(C)C)NC(=O)[C@H](CCC(N)=O)NC(=O)[C@@H](NC(=O)[C@H](CCC(=O)O)NC(=O)[C@H](CO)NC(=O)[C@@H](NC(=O)[C@H](C)N)C(C)C)[C@@H](C)CC)C(=O)N[C@@H](CCC(=O)O)C(=O)N[C@@H](CCCNC(=N)N)C(=O)N[C@H](C(=O)N[C@@H](CCC(=O)O)C(=O)N[C@@H](Cc1ccc2ccccc2c1)C(=O)N[C@@H](CC(C)C)C(=O)N[C@@H](CCCNC(=N)N)C(=O)N[C@@H](CCCCN)C(=O)N[C@@H](CCCCN)C(=O)N[C@@H](CC(C)C)C(=O)N[C@@H](CCC(N)=O)C(=O)N[C@@H](CC(=O)O)C(=O)N[C@H](C(=O)N[C@@H](Cc1c[nH]cn1)C(=O)N[C@@H](CC(N)=O)C(=O)N[C@@H](Cc1ccccc1)C(N)=O)C(C)C)C(C)C [SEQ ID NO: 12, [Ala^1, Nle^8,18, β-Ala^17,2-Nal^23] hPTH (1-34)-NH2] (H-AVSEIQL[Nle]HNLGKHLN[βAla][Nle]ERVE[2Nal]LRKKLQDVHNF-NH2)	430	
	CCCC[C@H](NC(=O)CCNC(=O)[C@H](CC(N)=O)NC(=O)[C@H](CC(C)C)NC(=O)[C@H](Cc1c[nH]cn1)NC(=O)[C@H](CCCCN)NC(=O)CNC(=O)[C@H](CC(C)C)NC(=O)[C@H](CC(N)=O)NC(=O)[C@H](Cc1c[nH]cn1)NC(=O)[C@H](CCCC)NC(=O)[C@H](CC(C)C)NC(=O)[C@H](CCC(N)=O)NC(=O)[C@@H](NC(=O)[C@H](CCC(=O)O)NC(=O)[C@H](CO)NC(=O)[C@@H](NC(=O)[C@H](C)N)C(C)C)[C@@H](C)CC)C(=O)N[C@@H](CCC(=O)O)C(=O)N[C@@H](CCCNC(=N)N)C(=O)N[C@H](C(=O)N[C@@H](CCC(=O)O)C(=O)N[C@@H](Cc1cccc2ccccc12)C(=O)N[C@@H](CC(C)C)C(=O)N[C@@H](CCCNC(=N)N)C(=O)N[C@@H](CCCCN)C(=O)N[C@@H](CC(C)C)C(=O)N[C@@H](CC(C)C)C(=O)N[C@@H](CCC(N)=O)C(=O)N[C@@H](CC(=O)O)C(=O)N[C@H](C(=O)N[C@@H](Cc1c[nH]cn1)C(=O)N[C@@H](CC(N)=O)C(=O)N[C@@H](Cc1ccccc1)C(N)=O)C(C)C)C(C)C [SEQ ID NO: 14, [Ala^1, Nle^8,18, β-Ala^17,1-Nal^23, Leu^27] hPTH (1-34)-NH2] (H-AVSEIQL[Nle]HNLGKHLN[βAla][Nle]ERVE[1Nal]LRKLLQDVHNF-NH2; N-terminus assumed)	449	
	CCCC[C@H](NC(=O)CCNC(=O)[C@H](CC(N)=O)NC(=O)[C@H](CC(C)C)NC(=O)[C@H](Cc1c[nH]cn1)NC(=O)[C@H](CCCCN)NC(=O)CNC(=O)[C@H](CC(C)C)NC(=O)[C@H](CC(N)=O)NC(=O)[C@H](Cc1c[nH]cn1)NC(=O)[C@H](CCCC)NC(=O)[C@H](CC(C)C)NC(=O)[C@H](CCC(N)=O)NC(=O)[C@@H](NC(=O)[C@H](CCC(=O)O)NC(=O)[C@H](CO)NC(=O)[C@@H](NC(=O)[C@@H](N)CO)C(C)C)[C@@H](C)CC)C(=O)N[C@@H](CCC(=O)O)C(=O)N[C@@H](CCCNC(=N)N)C(=O)N[C@H](C(=O)N[C@@H](CCC(=O)O)C(=O)N[C@@H](Cc1cccc2ccccc12)C(=O)N[C@@H](CC(C)C)C(=O)N[C@@H](CCCNC(=N)N)C(=O)N[C@@H](CCCCN)C(=O)N[C@@H](CC(C)C)C(=O)N[C@@H](CC(C)C)C(=O)N[C@@H](CCC(N)=O)C(=O)N[C@@H](CC(=O)O)C(=O)N[C@H](C(=O)N[C@@H](Cc1c[nH]cn1)C(=O)N[C@@H](CC(N)=O)C(=O)N[C@@H](Cc1ccccc1)C(N)=O)C(C)C)C(C)C [SEQ ID NO: 15, [Nle^8,18, β-Ala^17,1-Nal^23, Leu^27] hPTH (1-34)-NH2] (H-SVSEIQL[Nle]HNLGKHLN[βAla][Nle]ERVE[1Nal]LRKLLQDVHNF-NH2)	389	0.12 nM
	CCCC[C@H](NC(=O)[C@H](CC(C)C)NC(=O)[C@H](CCC(N)=O)NC(=O)[C@@H](NC(=O)[C@H](CCC(=O)O)NC(=O)[C@H](CO)NC(=O)[C@@H](NC(=O)[C@@H](N)CO)C(C)C)[C@@H](C)CC)C(=O)N[C@@H](Cc1c[nH]cn1)C(=O)N[C@@H](CC(N)=O)C(=O)N[C@@H](CC(C)C)C(=O)NCC(=O)N[C@@H](CCCCN)C(=O)N[C@@H](Cc1c[nH]cn1)C(=O)N[C@@H](CC(C)C)C(=O)N[C@@H](CC(N)=O)C(=O)NCCC(=O)N[C@@H](CCOC)C(=O)N[C@@H](CCC(=O)O)C(=O)N[C@@H](CCCNC(=N)N)C(=O)N[C@H](C(=O)N[C@@H](CCC(=O)O)C(=O)N[C@@H](Cc1cccc2ccccc12)C(=O)N[C@@H](CC(C)C)C(=O)N[C@@H](CCCNC(=N)N)C(=O)N[C@@H](CCCCN)C(=O)N[C@@H](CC(C)C)C(=O)N[C@@H](CC(C)C)C(=O)N[C@@H](CCC(N)=O)C(=O)N[C@@H](CC(=O)O)C(=O)N[C@H](C(=O)N[C@@H](Cc1c[nH]cn1)C(=O)N[C@@H](CC(N)=O)C(=O)N[C@@H](Cc1ccccc1)C(N)=O)C(C)C)C(C)C [SEQ ID NO: 16, [Nle^8, β-Ala^17, hSer(OMe)^18,1-Nal^23, Leu^27] hPTH (1-34)-NH2] (H-SVSEIQL[Nle]HNLGKHLN[βAla][hSer](Me)ERVE[1Nal]LRKLLQDVHNF-NH2)	719	0.13 nM
	CCCC[C@H](NC(=O)[C@H](CO)NC(=O)[C@H](CC(N)=O)NC(=O)[C@H](CC(C)C)NC(=O)[C@H](Cc1c[nH]cn1)NC(=O)[C@H](CCCCN)NC(=O)CNC(=O)[C@H](CC(C)C)NC(=O)[C@H](CC(N)=O)NC(=O)[C@H](Cc1c[nH]cn1)NC(=O)[C@H](CCCC)NC(=O)[C@H](CC(C)C)NC(=O)[C@H](CCC(N)=O)NC(=O)[C@@H](NC(=O)[C@H](CCC(=O)O)NC(=O)[C@H](CO)NC(=O)[C@@H](NC(=O)[C@@H](N)CO)C(C)C)[C@@H](C)CC)C(=O)N[C@@H](CCC(=O)O)CC(=O)N[C@@H](CCCNC(=N)N)C(=O)N[C@H](C(=O)N[C@@H](CCC(=O)O)C(=O)N[C@@H](Cc1cccc2ccccc12)C(=O)N[C@@H](CC(C)C)C(=O)N[C@@H](CCCNC(=N)N)C(=O)N[C@@H](CCCCN)C(=O)N[C@@H](CC(C)C)C(=O)N[C@@H](CC(C)C)C(=O)N[C@@H](CCC(N)=O)C(=O)N[C@@H](CC(=O)O)C(=O)N[C@H](C(=O)N[C@@H](Cc1c[nH]cn1)C(=O)N[C@@H](CC(N)=O)C(=O)N[C@@H](Cc1ccccc1)C(N)=O)C(C)C)C(C)C [SEQ ID NO: 20, [Nle^8,18, β-hGlu^19,1-Nal^23, Leu^27] hPTH (1-34)-NH2] (H-SVSEIQL[Nle]HNLGKHLNS[Nle][β3hE]RVE[1Nal]LRKLLQDVHNF-NH2; N-terminus assumed)	91	
	CCCC[C@H](NC(=O)[C@H](CC(C)C)NC(=O)[C@H](CCC(N)=O)NC(=O)[C@@H](NC(=O)[C@H](CCC(=O)O)NC(=O)[C@H](CO)NC(=O)[C@@H](NC(=O)[C@@H](N)CO)C(C)C)[C@@H](C)CC)C(=O)N[C@@H](Cc1c[nH]cn1)C(=O)N[C@@H](CC(N)=O)C(=O)N[C@@H](CC(C)C)C(=O)NCC(=O)N[C@@H](CCCCN)C(=O)N[C@@H](Cc1c[nH]cn1)C(=O)N[C@@H](CC(C)C)C(=O)N[C@@H](CCC(=O)O)C(=O)N[C@@H](CO)C(=O)N[C@H](CC(=O)N[C@@H](CCC(=O)O)C(=O)N[C@@H](CCCNC(=N)N)C(=O)N[C@H](C(=O)N[C@@H](CCC(=O)O)C(=O)N[C@@H](Cc1cccc2ccccc12)C(=O)N[C@@H](CC(C)C)C(=O)N[C@@H](CCCNC(=N)N)C(=O)N[C@@H](CCCCN)C(=O)N[C@@H](CC(C)C)C(=O)N[C@@H](CC(C)C)C(=O)N[C@@H](CCC(N)=O)C(=O)N[C@@H](CC(=O)O)C(=O)N[C@H](C(=O)N[C@@H](Cc1c[nH]cn1)C(=O)N[C@@H](CC(N)=O)C(=O)N[C@@H](Cc1ccccc1)C(N)=O)C(C)C)C(C)C)[C@@H](C)CC [SEQ ID NO: 21, [Nle^8, Glu^16, β-hIle^18,1-Nal^23, Leu^27] hPTH (1-34)-NH2] (H-SVSEIQL[Nle]HNLGKHLES[β3hI]ERVE[1Nal]LRKLLQDVHNF-NH2)	234	
